Measurements: patent US20030032879A1, “Microbubble formation using ultrasound” (priority 1997, published 2003)

Experiments:
[1] = Acoustic backscatter (gray scale intensity) after injection into water beaker at 37° C.; settings: 0.2 mL neat liquid (1111 micromoles) into 1000 mL water at 37° C.
Protocol: The criticality that the low boiling liquid be present as a finely divided dispersion rather than as a neat liquid was determined by measuring the acoustic backscatter of the two states.
Two solutions were prepared to simulate the administration to an organism of either a colloidal dispersion of a low boiling liquid or the liquid neat. These were scanned at 5.0 MHz with a Hewlett Packard Model 77020 ultrasound scanner and the images obtained recorded on Sony ES VHS tape. The analog images from the tape were then converted to a digital form using the software package Global Lab Image Software (Data Translation, Marlboro, Mass.). The gray scale intensity within a 4900 pixel (70×70 pixel-sized) region-of-interest was then measured before and after the injection of the colloidal dispersion of Example 19 and the same quantity of neat dodecafluoropentane into a 1000 mL water beaker equilibrated at 37° C.
The measurements were performed on a gray scale of 2 to 254. […] The injection of 0.1 mL of this emulsion produced a change of intensity to 236 five seconds post-injection and 182 fifty-two seconds post-injection.
The same experiment was performed with a 0.2 mL injection of neat dodecafluoropentane. This corresponds to 1111 micromoles of dodecafluoropentane, over 300-times the quantity in the experiment above. […]

[2] = Interfacial tension against dodecafluoropentane, Kruss Drop Volume Tensiometer; type: physicochemical; settings: Pluronic P-123 / F-127 mixtures, 4° C.
dogs = settings: cited from earlier work
[3] = Calculated change in dispersion size from liquid and gas densities; type: physicochemical; settings: calculated from cubic root of volume
Protocol: One can also calculate the expected change in dispersion size if one knows the relative densities of the dispersed liquid as a gas and liquid. For example, the Gas Data Book, by W Braker and A Mossman, Matheson, contains such data. Examining octafluorocyclobutane, one finds that 1 L of the liquid yields 188 L of gas at a pressure of 760 mm Hg and 15° C. Since the volume of a sphere is related to the diameter of a sphere by the cubic root of the volume, the phase transition for an octafluorobutane emulsion particle will cause a 5.7-fold increase in diameter.

[4] = 760 mm Hg and 15° C., Gas Data Book; cited from earlier work

**Q.** What does the source list for `FC(F)(F)C(F)(F)C(F)(F)C(F)(F)C(F)(F)F` [dodecafluoropentane]?
**A.** image intensity (gray scale of 2 to 254) ([1]; fifty-two seconds post-injection): 5.0; image intensity (gray scale of 2 to 254) ([1]; five seconds post-injection): 7.7; HLB from graphed interfacial tension data [2]: about 14

**Q.** Which toxicity (dogs; Injections of 20 mL) does the source give for `CCOCC` [ether] here?
**A.** Its toxicity is “fatal”.

**Q.** What about the “contrast effect on Doppler signal” value (dogs; intraarterial, detected five cm below injection site) of the same compound?
**A.** Its value is “greatest contrast effect”.

**Q.** For `FC1(F)C(F)(F)C(F)(F)C1(F)F` [octafluorocyclobutane], which “increase in diameter of emulsion particle on phase transition” value [3] is on record?
**A.** Its value is 5.7 fold.

**Q.** What about the “gas volume from 1 L of the liquid” value [4] of the same compound?
**A.** Its value is 188 L.
